In patent US8901315B2, “Thienopyrazole derivative having PDE7 inhibitory activity” (Daiichi Sankyo Company, Limited, priority 2004, dated 2014) one finds IC50 data, which are given here for 21 molecules.

Molecules are shown by their SMILES. pIC50: −log10 of the molar value. Structures can show the parent of a compound that is named as a salt.

Assay [1] addresses PDE 7 (phosphodiesterase VII) (Homo sapiens (Human), UniProt Q13946). Nature of the assay: PDE 7 inhibiting effect (3H-cAMP hydrolysis, PDE 7 active fraction from MOLT-4 cells). It counts as biochemical. Conditions: PDE 7 fraction from MOLT-4 cells, 0.064 μM cAMP, 10 μM rolipram, 2 hours at 25° C.; read-out: PDE7 IC50. In a few lines: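 ³H-cAMP hydrolysis by a PDE7-active fraction was followed, and the reaction was worked up with a Sephadex-QAE suspension (10 mM HEPES-Na, pH 7.0). Enzyme came from MOLT-4 cell soluble extract (pH 7.5 Tris buffer, 100,000×G supernatant), fractionated by HiTrap Q anion exchange with a 0–0.8 M NaCl gradient.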

Assay [2] has as its target PDE 4 (phosphodiesterase IV). Nature of the assay: PDE 4 inhibiting effect (3H-cAMP hydrolysis, PDE 4 active fraction from Balb/c mouse liver). The format is biochemical. Conditions: PDE 4 fraction from Balb/c mice liver, 0.064 μM cAMP, 2 hours at 25° C.; read-out: PDE4 IC50. Summed up: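 Activity was measured as 3H-cAMP hydrolysis, with Sephadex-QAE added after the reaction. The enzyme was a PDE4-active fraction from 12-week male Balb/c mouse liver, taken from the ultracentrifuged soluble fraction by DEAE sepharose chromatography (0.05-1 M sodium acetate gradient, pH 6.5 buffer).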

PDE 7 (phosphodiesterase VII), sequence (Q13946 whole entry): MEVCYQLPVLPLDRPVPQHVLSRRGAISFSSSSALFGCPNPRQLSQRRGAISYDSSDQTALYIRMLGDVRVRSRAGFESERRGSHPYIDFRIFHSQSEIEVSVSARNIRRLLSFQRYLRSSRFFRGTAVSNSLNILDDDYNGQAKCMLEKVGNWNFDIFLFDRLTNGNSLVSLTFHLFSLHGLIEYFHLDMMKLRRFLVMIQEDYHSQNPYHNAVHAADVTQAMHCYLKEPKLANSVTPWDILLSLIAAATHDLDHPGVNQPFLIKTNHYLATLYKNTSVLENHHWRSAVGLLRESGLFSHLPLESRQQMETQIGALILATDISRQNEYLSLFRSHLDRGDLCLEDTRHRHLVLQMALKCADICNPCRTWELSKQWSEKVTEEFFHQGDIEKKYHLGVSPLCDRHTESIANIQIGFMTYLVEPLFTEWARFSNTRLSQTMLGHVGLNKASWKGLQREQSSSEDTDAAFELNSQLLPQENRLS

Usually pIC50 stands for −log10 of the IC50, conventionally taken in molar units. For the molecule `Cc1nn(C2CCCCC2)c2sc(C(=O)N[C@H]3CC[C@H](CO)CC3)cc12` [Example 206, 1-Cyclohexyl-N-[4-(hydroxymethyl)cyclohexyl]-3-methyl-1H-thieno[2,3-c]pyrazole-5-carboxamide], the negative logarithm of the IC50 (pIC50) in assay [1] is 7.30; in assay [2] it was 5.42.

Regarding `Cc1nn(C2CCCCC2)c2sc(C(=O)N[C@H]3CC[C@H](C(=O)N(C)C)CC3)cc12` [Example 208, 1-Cyclohexyl-N-{4-[(dimethylamino)carbonyl]cyclohexyl}-3-methyl-1H-thieno[2,3-c]pyrazole-5-carboxamide], the values for the pIC50 in assay [1] and in assay [2] were 7.60 and 5.42, respectively.

`Cc1nn(C2CCCCC2)c2sc(C(=O)N[C@H]3CC[C@H](C#N)CC3)cc12` [Example 209, N-(4-Cyanocyclohexyl)-1-cyclohexyl-3-methyl-1H-thieno[2,3-c]-pyrazole-5-carboxamide]: the negative logarithm of the IC50 (pIC50) in assay [1] is 7.11; in assay [2], 5.13.

For the molecule `Cc1nn(C2CCCCC2)c2sc(C(=O)N[C@H]3CC[C@H](C(=O)O)C3)cc12` [Example 227, (1S,3S)-3-{[(1-Cyclohexyl-3-methyl-1H-thieno[2,3-c]pyrazol-5-yl)-carbonyl]amino}cyclopentanecarboxylic acid], the pIC50 is 7.25 in assay [1] and 5.00 in assay [2].

With `Cc1nn(C2CCCCC2)c2sc(C(=O)NCCN3CCN(C)C(=O)C3=O)cc12` [Example 228, 1-Cyclohexyl-3-methyl-N-[2-(4-methyl-2,3-dioxo-1-piperazinyl)ethyl]-1H-thieno[2,3-c]pyrazole-5-carboxamide], the figures for the pIC50 in assay [1] and in assay [2] were 7.29 and 5.24, respectively.

As to `Cc1nn(C2CCCCC2)c2sc(C(=O)N[C@H]3CC[C@H](C(=O)N(C)C)C3)cc12` [Example 230, 1-Cyclohexyl-N-{(1S,3S)-3-[(dimethylamino)carbonyl]cyclopentyl}-3-methyl-1H-thieno[2,3-c]pyrazole-5-carboxamide HCl salt], the results for the pIC50 in assay [1] and in assay [2] were 7.64 and 5.15, respectively.

Regarding `Cc1nn(C2CCCCC2)c2sc(C(=O)NC3CCN(C(=O)N(C)C)CC3)cc12` [Example 235, 1-Cyclohexyl-N-{1-[(dimethylamino)carbonyl]-4-piperidinyl}-3-methyl-1H-thieno[2,3-c]pyrazole-5-carboxamide], the pIC50 is 7.77 in assay [1] and 5.55 in assay [2].

Turning to `Cc1nn(C2CCCCC2)c2sc(C(=O)N[C@H]3CC[C@H](C(=O)N4CCOCC4)CC3)cc12` [Example 236, 1-Cyclohexyl-3-methyl-N-[4-(4-morpholinylcarbonyl)cyclohexyl]-1H-thieno[2,3-c]pyrazole-5-carboxamide], the pIC50 in assay [1] was 7.70; in assay [2], 5.57.

Turning to `Cc1nn(C2CCCCC2)c2sc(C(=O)N[C@H]3CC[C@H](C(=O)N4CCC(O)CC4)CC3)cc12` [Example 239, 1-Cyclohexyl-N-{4-[(4-hydroxy-1-piperidinyl)carbonyl]cyclohexyl}-3-methyl-1H-thieno[2,3-c]pyrazole-5-carboxamide], the negative-log IC50 (pIC50) is 7.82 in assay [1] and 5.59 in assay [2].

On to `Cc1nn(C2CCCCC2)c2sc(C(=O)N[C@H]3CC[C@H](CN4C(=O)CNC4=O)CC3)cc12` [Example 247, 1-Cyclohexyl-N-{4-[(2,5-dioxo-1-imidazolidinyl)methyl]cyclohexyl}-3-methyl-1H-thieno[2,3-c]pyrazole-5-carboxamide], for which the pIC50 in assay [1] is 8.19; in assay [2], 5.85.

Consider `Cc1nn(C2CCOCC2)c2sc(C(=O)Nc3ccc(C(=O)N(C)C)cc3)cc12` [Example 255, N-{4-[(Dimethylamino)carbonyl]phenyl}-3-methyl-1 tetrahydro-2H-pyran-4-yl-1H-thieno[2,3-c]pyrazole-5-carboxamide], for which the values for the pIC50 in assay [1] and in assay [2] were 7.05 and 4.92, respectively.

As for `Cc1nn(C2CCCCC2)c2sc(C(=O)Nc3ccc(N4CCNC4=O)nc3)cc12` [Example 256, 1-Cyclohexyl-3-methyl-N-[6-(2-oxo-1-imidazolidinyl)-3-pyridinyl]-1H-thieno[2,3-c]pyrazole-5-carboxamide], the pIC50 is 8.70 in assay [1] and 6.09 in assay [2].

With `Cc1nn(C2CCCCC2)c2sc(C(=O)N[C@H]3CC[C@H](CO)C3)cc12` [Example 257, 1-Cyclohexyl-N-[(1S,3S)-3-(hydroxymethyl)cyclopentyl]-3-methyl-1H-thieno[2,3-c]pyrazole-5-carboxamide], the values for the negative-log IC50 (pIC50) in assay [1] and in assay [2] were 7.17 and 5.08, respectively.

`Cc1nn(C2CCCCC2)c2sc(C(=O)N[C@H]3CC[C@H](CN4C(=O)CNC4=O)C3)cc12` [Example 258, 1-Cyclohexyl-N-{(1S,3S)-3-[(2,5-dioxo-1-imidazolidinyl)methyl]cyclopentyl}-3-methyl-1H-thieno[2,3-c]pyrazole-5-carboxamide]: the pIC50 in assay [1] is 7.82; in assay [2] it was 5.33.

In the case of `Cc1nn(C2CCOCC2)c2sc(C(=O)Nc3ccc(N4C(=O)CN(C)C4=O)cc3)cc12` [Example 260, 3-Methyl N-[4-(3-methyl-2,5-dioxo-1-imidazolidinyl)phenyl]-1-tetrahydro-2H-pyran-4-yl-1H-thieno[2,3-c]pyrazole-5-carboxamide], the negative logarithm of the IC50 (pIC50) in assay [1] is 7.43; in assay [2], 5.35.

With `Cc1nn(C2CCOCC2)c2sc(C(=O)Nc3ccc(N4CCNC4=O)nc3)cc12` [Example 261], the pIC50 was 7.55 in assay [1] and 5.72 in assay [2].

Regarding `Cc1nn(C2CCCCC2)c2sc(C(=O)Nc3ccc(N4CC[C@@H](O)C4)cc3)cc12` [Example 262, 1-Cyclohexyl-N-{4-[(3R)-3-hydroxypyrrolidinyl]phenyl}-3-methyl-1H-thieno[2,3-c]pyrazole-5-carboxamide], the pIC50 was 7.55 in assay [1] and 5.42 in assay [2].

For the molecule `Cc1nn(C2CCCCC2)c2sc(C(=O)Nc3ccc(N4CC[C@@H](O)C4)c(F)c3)cc12` [Example 263, 1-Cyclohexyl-N-{3-fluoro-4-[(3R)-3-hydroxypyrrolidinyl]phenyl}-3-methyl-1H-thieno[2,3-c]pyrazole-5-carboxamide], the pIC50 is 7.27 in assay [1] and 5.46 in assay [2].

`Cc1nn(C2CCCCC2)c2sc(C(=O)Nc3cccc(S(=O)(=O)N4CCC(O)CC4)c3)cc12` [Example 264, 1-Cyclohexyl-N-{3-[(4-hydroxy-1-piperidinyl)sulfonyl]phenyl}-3-methyl-1H-thieno[2,3-c]pyrazole-5-carboxamide]: the pIC50 in assay [1] is 7.09; in assay [2] it was 5.20.

As to `Cc1nn(C2CCOCC2)c2sc(C(=O)Nc3ccc(N4CCC(O)CC4)c(F)c3)cc12` [Example 268, N-[3-Fluoro-4-(4-hydroxy-piperidinyl)phenyl]-3-methyl-1-tetrahydro-2H-pyran-4-yl-1H-thieno[2,3-c]pyrazole-5-carboxamide], the figures for the pIC50 in assay [1] and in assay [2] were 7.06 and 5.32, respectively.

`Cc1nn(C2CCCCC2)c2sc(C(=O)N[C@H]3CC[C@H](N4CCOC4=O)CC3)cc12` [Example 270, 1-Cyclohexyl-3-methyl-N-[trans-4-(2-oxo-1,3-oxazolidin-3-yl)-cyclohexyl]-1H-thieno[2,3-c]pyrazole-5-carboxamide]: the values for the pIC50 in assay [1] and in assay [2] were 7.82 and 5.74, respectively.
